Activity calls are given as the source filed them. The rule behind the calls is not given here.
Assays:
[1] = molecular target: Metabotropic glutamate receptor 5 (Rattus norvegicus) (UniProt P31424); experiment: Antagonist activity at rat mGlu5 receptor expressed in HEK293A cells assessed as inhibition of glutamate-induced calcium mobilization at 30 uM relative to glutamate; type: functional, cell-based; settings: HEK293-A
[2] = molecular target: T1, Metabotropic glutamate receptor 5 (Rattus norvegicus, UniProt P31424); experiment: Antagonist activity at rat mGlu5 receptor expressed in HEK293A cells assessed as inhibition of glutamate-induced calcium mobilization; type: functional, cell-based, HEK293-A
[3] = molecular target: T1, Metabotropic glutamate receptor 5; experiment: Displacement of [3H]methoxy-PEPy from rat mGlu5 receptor expressed in HEK293A cells after 60 mins by scintillation counting; type: cell-based, HEK293-A
Plasma [4] = experiment: Protein binding in rat plasma by rapid equilibrium dialysis method; type: ADME, cell-free
[5] = molecular target: Metabotropic glutamate receptor 4 (Homo sapiens) (UniProt Q14833); experiment: Inhibition of mGlu4 receptor at 10 uM
Chain of Metabotropic glutamate receptor 4 (Homo sapiens) (Q14833 whole entry): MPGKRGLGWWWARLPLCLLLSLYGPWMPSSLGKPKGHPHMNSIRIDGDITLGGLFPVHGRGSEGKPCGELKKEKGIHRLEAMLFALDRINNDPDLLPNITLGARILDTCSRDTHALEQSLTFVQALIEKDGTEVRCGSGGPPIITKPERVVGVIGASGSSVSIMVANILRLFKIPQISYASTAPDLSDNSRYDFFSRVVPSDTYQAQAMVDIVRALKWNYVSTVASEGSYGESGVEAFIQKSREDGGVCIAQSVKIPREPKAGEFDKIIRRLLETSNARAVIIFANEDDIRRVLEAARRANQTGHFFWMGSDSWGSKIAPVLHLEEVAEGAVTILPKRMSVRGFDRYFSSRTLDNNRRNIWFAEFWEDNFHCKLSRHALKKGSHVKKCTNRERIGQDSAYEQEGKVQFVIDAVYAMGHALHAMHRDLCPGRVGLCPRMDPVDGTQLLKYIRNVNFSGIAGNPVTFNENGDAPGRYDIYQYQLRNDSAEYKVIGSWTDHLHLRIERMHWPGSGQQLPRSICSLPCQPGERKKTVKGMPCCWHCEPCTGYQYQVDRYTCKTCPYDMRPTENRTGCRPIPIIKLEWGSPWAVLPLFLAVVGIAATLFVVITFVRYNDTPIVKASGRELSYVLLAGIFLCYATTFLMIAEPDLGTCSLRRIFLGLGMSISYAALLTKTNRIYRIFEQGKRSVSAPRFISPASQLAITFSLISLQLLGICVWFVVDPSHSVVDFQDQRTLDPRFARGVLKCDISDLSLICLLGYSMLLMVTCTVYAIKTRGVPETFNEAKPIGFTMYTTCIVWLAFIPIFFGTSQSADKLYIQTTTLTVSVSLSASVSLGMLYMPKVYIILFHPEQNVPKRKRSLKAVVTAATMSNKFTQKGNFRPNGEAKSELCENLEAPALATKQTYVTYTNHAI

[6] = molecular target: Metabotropic glutamate receptor 7 (Homo sapiens) (UniProt Q14831); experiment: Inhibition of mGlu7 receptor at 10 uM
Chain of Metabotropic glutamate receptor 7 (Homo sapiens) (Q14831 whole entry): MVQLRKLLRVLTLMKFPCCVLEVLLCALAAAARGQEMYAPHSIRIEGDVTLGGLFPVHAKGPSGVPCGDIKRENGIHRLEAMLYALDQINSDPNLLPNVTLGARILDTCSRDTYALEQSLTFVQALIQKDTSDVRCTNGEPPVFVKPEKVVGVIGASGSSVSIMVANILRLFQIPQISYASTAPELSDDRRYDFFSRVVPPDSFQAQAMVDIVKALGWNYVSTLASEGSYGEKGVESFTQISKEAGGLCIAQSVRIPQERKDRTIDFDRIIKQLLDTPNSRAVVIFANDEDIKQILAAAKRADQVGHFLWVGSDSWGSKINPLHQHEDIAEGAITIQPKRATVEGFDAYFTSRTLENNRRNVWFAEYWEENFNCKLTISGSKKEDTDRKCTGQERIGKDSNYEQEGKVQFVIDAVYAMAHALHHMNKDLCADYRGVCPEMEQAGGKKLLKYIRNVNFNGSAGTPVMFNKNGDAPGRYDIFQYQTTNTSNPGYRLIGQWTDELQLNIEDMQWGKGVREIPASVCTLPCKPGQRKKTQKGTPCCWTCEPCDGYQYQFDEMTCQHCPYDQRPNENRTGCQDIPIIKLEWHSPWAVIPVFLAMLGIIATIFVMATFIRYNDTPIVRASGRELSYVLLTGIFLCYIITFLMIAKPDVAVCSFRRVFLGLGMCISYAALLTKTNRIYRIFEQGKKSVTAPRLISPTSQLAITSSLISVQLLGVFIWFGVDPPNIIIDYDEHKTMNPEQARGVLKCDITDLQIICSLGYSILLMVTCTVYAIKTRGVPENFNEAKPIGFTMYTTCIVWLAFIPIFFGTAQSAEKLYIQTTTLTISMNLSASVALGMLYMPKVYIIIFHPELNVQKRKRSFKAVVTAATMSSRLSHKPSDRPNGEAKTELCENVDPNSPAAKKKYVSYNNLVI

[7] = Metabolic stability in rat liver microsomes assessed as compound remaining at 1 uM after 15 mins in presence of NADPH; type: ADME, Microsome; settings: read-out: Stability
[8] = Metabolic stability in human liver microsomes assessed as compound remaining at 1 uM after 15 mins in presence of NADPH; type: ADME, Microsome; settings: read-out: Stability
Plasma [9] = experiment: Protein binding in human plasma by rapid equilibrium dialysis method; type: ADME, cell-free
[10] = molecular target: Metabotropic glutamate receptor 3 (Homo sapiens) (UniProt Q14832); experiment: Inhibition of mGlu3 receptor at 10 uM
[11] = molecular target: Metabotropic glutamate receptor 2 (Homo sapiens) (UniProt Q14416); experiment: Inhibition of mGlu2 receptor at 10 uM
Chain of Metabotropic glutamate receptor 2 (Homo sapiens) (Q14416 19-872 limits assumed): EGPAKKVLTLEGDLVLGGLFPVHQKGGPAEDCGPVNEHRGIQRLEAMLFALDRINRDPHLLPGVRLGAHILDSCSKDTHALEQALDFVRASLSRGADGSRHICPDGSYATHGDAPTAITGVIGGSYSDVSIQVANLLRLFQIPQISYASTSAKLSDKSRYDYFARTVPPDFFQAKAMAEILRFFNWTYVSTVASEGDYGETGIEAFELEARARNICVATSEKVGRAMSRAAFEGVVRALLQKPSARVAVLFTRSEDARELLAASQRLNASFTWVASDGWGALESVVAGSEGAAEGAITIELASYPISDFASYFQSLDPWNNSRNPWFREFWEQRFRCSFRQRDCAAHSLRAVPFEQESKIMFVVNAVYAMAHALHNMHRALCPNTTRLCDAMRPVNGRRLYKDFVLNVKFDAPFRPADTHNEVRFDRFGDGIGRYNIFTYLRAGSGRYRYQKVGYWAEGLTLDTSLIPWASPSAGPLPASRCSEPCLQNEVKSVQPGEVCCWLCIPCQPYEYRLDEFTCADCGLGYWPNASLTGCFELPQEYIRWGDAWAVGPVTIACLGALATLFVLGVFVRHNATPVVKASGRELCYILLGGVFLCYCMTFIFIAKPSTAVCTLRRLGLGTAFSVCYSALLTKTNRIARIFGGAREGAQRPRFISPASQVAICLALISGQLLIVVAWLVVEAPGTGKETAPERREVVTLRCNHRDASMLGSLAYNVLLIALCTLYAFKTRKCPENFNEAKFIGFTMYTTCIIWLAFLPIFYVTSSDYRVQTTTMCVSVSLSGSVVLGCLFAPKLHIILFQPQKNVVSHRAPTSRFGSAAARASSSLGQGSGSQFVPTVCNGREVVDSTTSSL

[12] = molecular target: Metabotropic glutamate receptor 8 (Homo sapiens) (UniProt O00222); experiment: Inhibition of mGlu8 receptor at 10 uM
Chain of Metabotropic glutamate receptor 8 (Homo sapiens) (O00222 whole entry): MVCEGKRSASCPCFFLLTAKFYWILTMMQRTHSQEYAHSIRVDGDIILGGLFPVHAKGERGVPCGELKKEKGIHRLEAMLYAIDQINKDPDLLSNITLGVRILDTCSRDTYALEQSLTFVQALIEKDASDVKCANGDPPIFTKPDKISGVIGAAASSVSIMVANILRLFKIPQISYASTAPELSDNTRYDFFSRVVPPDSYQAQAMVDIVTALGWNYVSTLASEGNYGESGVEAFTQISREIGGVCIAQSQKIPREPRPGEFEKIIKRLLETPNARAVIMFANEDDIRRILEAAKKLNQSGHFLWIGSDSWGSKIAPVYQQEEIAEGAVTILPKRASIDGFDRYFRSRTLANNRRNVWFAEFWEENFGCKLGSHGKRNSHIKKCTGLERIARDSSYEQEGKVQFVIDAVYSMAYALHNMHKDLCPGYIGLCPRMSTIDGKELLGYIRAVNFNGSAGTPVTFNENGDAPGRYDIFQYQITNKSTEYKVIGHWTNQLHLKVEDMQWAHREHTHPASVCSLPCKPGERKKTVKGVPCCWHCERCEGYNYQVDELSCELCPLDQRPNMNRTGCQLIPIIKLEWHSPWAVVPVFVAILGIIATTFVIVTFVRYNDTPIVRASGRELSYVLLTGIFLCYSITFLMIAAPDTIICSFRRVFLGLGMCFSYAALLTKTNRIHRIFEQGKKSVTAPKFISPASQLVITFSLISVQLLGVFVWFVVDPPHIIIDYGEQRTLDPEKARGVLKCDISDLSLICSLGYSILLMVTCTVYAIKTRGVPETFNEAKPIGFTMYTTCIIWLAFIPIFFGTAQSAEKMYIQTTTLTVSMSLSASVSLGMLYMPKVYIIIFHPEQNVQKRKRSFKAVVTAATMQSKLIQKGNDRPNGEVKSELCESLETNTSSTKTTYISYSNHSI

[13] = molecular target: Metabotropic glutamate receptor 1 (Homo sapiens) (UniProt Q13255); experiment: Inhibition of mGlu1 receptor at 10 uM
Plasma [14] = experiment: Tmax in Sprague-Dawley rat plasma at 10 mg/kg, ip after 0.25 to 4 hrs; type: ADME, organism-based; design: dose 10 mg/kg, route intraperitoneal; settings: in vivo
[15] = Ratio of drug level brain to plasma in Sprague-Dawley rat at 10 mg/kg, ip; type: ADME, organism-based; design: dose 10 mg/kg, route intraperitoneal; settings: brain and plasma
[16] = Cmax in Sprague-Dawley rat brain at 10 mg/kg, ip after 0.25 to 4 hrs; type: ADME, organism-based; design: dose 10 mg/kg, route intraperitoneal
[17] = AUC (0-4 hrs) in Sprague-Dawley rat plasma at 10 mg/kg, ip; type: ADME, organism-based; design: time < 4 hr, dose 10 mg/kg, route intraperitoneal
[18] = AUC (0-4 hrs) in Sprague-Dawley rat brain at 10 mg/kg, ip; type: ADME, organism-based; design: time < 4 hr, dose 10 mg/kg, route intraperitoneal
Brain = experiment: Tmax in Sprague-Dawley rat brain at 10 mg/kg, ip after 0.25 to 4 hrs; type: ADME, organism-based; design: dose 10 mg/kg, route intraperitoneal; settings: in vivo
Plasma [19] = experiment: Cmax in Sprague-Dawley rat plasma at 10 mg/kg, ip after 0.25 to 4 hrs; type: ADME, organism-based; design: dose 10 mg/kg, route intraperitoneal; settings: in vivo

Chain of Metabotropic glutamate receptor 5 (Rattus norvegicus) (P31424 21-1203 limits assumed): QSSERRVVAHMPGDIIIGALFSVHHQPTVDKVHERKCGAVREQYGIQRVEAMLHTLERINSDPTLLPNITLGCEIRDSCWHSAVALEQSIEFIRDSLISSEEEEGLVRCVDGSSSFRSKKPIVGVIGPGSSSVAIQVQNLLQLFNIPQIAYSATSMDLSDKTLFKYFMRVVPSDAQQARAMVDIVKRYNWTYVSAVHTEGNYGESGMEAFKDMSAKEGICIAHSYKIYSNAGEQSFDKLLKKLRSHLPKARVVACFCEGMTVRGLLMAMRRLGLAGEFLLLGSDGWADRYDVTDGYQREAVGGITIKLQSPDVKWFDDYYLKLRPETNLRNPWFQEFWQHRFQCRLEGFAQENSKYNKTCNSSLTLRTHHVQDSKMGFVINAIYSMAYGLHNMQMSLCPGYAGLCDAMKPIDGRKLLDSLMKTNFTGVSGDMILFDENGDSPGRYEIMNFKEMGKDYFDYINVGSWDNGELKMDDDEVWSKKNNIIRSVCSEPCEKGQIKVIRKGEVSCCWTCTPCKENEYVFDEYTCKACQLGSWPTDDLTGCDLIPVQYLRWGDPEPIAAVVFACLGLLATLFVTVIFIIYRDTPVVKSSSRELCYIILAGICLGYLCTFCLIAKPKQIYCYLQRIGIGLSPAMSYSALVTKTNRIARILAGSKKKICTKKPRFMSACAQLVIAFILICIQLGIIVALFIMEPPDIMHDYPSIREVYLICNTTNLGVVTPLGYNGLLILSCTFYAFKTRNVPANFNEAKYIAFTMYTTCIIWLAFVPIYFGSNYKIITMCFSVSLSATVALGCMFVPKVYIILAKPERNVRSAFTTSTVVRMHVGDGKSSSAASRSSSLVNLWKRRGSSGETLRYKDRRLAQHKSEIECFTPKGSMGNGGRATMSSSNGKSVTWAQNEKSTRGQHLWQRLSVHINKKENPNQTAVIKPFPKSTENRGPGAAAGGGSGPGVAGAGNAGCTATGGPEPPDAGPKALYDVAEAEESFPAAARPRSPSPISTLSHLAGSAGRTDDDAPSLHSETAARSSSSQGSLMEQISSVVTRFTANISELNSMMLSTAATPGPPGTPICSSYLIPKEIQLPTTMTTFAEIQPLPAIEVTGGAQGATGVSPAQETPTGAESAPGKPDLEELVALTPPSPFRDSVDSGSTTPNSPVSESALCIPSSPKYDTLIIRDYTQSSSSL

| %max [1] [%] | IC50 [2] [nM] | Structure (SMILES) | further results |
| --- | --- | --- | --- |
| 1.7 | 505 | CCc1cccc(NC(=O)c2cc(F)cc(C#N)c2)n1 | – |
| 2.1 | 122 | Cc1cccc(NC(=O)c2cc(F)cc(C#N)c2)c1 | Ki [3]: 100 nM; PPB (Plasma [4]): 95.3%; inhibition [5]: inactive; inhibition [6]: inactive; remaining at 0.25 h, 1 µM [7]: 69.7%; remaining at 0.25 h, 1 µM [8]: 19.5%; PPB (Plasma [9]): 98.3%; inhibition [10]: inactive; inhibition [11]: inactive; inhibition [12]: inactive; inhibition [13]: inactive |
| 37.4 | > 10000 | N#Cc1cc(F)cc(C(=O)Nc2nccs2)c1 | – |
| 35.5 | > 10000 | COc1cccc(NC(=O)c2cc(F)cc(C#N)c2)c1 | – |
| – | > 30000 | N#Cc1cc(F)cc(C(=O)Nc2ccccc2Cl)c1 | – |
| 46.7 | > 10000 | Cn1ccc(NC(=O)c2cc(F)cc(C#N)c2)n1 | – |
| 22.1 | 2160 | N#Cc1cc(F)cc(C(=O)Nc2cccc(F)c2)c1 | – |
| 2.4 | 594 | Cc1nc(NC(=O)c2cc(F)cc(C#N)c2)sc1C | – |
| 17.3 | 1510 | COc1cccc(NC(=O)c2cc(F)cc(C#N)c2)n1 | – |
| 29.7 | > 10000 | CC(C)(C)c1csc(NC(=O)c2cc(F)cc(C#N)c2)n1 | – |
| – | > 30000 | CS(=O)(=O)c1cccc(NC(=O)c2cc(F)cc(C#N)c2)c1 | – |
| – | > 30000 | CC(C)(C)c1cccc(NC(=O)c2cc(F)cc(C#N)c2)c1 | – |
| 2.5 | 347 | N#Cc1cc(F)cc(C(=O)Nc2cccc(Cl)c2F)c1 | – |
| – | > 30000 | COc1ccc(NC(=O)c2cc(F)cc(C#N)c2)cc1 | – |
| 0.6 | 45 | N#Cc1cc(F)cc(C(=O)Nc2cccc(Cl)c2)c1 | Ki [3]: 206 nM; PPB (Plasma [4]): 93.7%; Tmax (Plasma [14]): 15 min; inhibition [5]: inactive; inhibition [6]: inactive; remaining at 0.25 h, 1 µM [7]: 96.8%; Kp [15]: 1.4; remaining at 0.25 h, 1 µM [8]: 18%; PPB (Plasma [9]): 97.1%; inhibition [10]: inactive; Cmax [16]: 1090 ng/mL; inhibition [11]: inactive; AUC(0-t) at 4 h [17]: 1200 ng·h/mL; AUC(0-t) at 4 h [18]: 1710 ng·h/mL; Tmax (Brain): 15 min; inhibition [12]: inactive; inhibition [13]: inactive; Cmax (Plasma [19]): 970 ng/mL |
| 1.2 | 65 | Cc1cccc(NC(=O)c2cc(F)cc(C#N)c2)n1 | Ki [3]: 157 nM; PPB (Plasma [4]): 84%; inhibition [5]: inactive; inhibition [6]: inactive; remaining at 0.25 h, 1 µM [7]: 46.5%; remaining at 0.25 h, 1 µM [8]: 7%; PPB (Plasma [9]): 89.9%; inhibition [10]: inactive; inhibition [11]: inactive; inhibition [12]: inactive; inhibition [13]: inactive |
| 2.4 | 4940 | CCc1cccc(NC(=O)c2cc(F)cc(C#N)c2)c1 | – |
| – | > 30000 | N#Cc1cc(F)cc(C(=O)Nc2cccnc2)c1 | – |
| – | > 30000 | N#Cc1cc(F)cc(C(=O)Nc2ccccc2F)c1 | – |
| 1.4 | 489 | N#Cc1cccc(NC(=O)c2cc(F)cc(C#N)c2)c1 | – |
| 69.2 | > 10000 | N#Cc1cc(F)cc(C(=O)Nc2ccc(F)cc2)c1 | – |
| 2.2 | 250 | N#Cc1cc(F)cc(C(=O)Nc2cccc(Cl)n2)c1 | – |
| 17.5 | 863 | Cc1cnc(NC(=O)c2cc(F)cc(C#N)c2)s1 | – |
| – | > 30000 | Cc1ccc(NC(=O)c2cc(F)cc(C#N)c2)cc1 | – |
| 38.5 | 1830 | N#Cc1cc(F)cc(C(=O)Nc2cc(F)cc(Cl)c2)c1 | – |

The next lines start with the molecule.

| Structure (SMILES) | %max [1] [%] | IC50 [2] [nM] | further results |
| --- | --- | --- | --- |
| Cc1cc(C)nc(NC(=O)c2cc(F)cc(C#N)c2)c1 | – | > 30000 | – |
| N#Cc1cc(F)cc(C(=O)Nc2cccc(C(F)(F)F)n2)c1 | 19.6 | > 10000 | – |
| Cc1ccnc(NC(=O)c2cc(F)cc(C#N)c2)c1 | 38.6 | > 10000 | – |
| Cc1cccnc1NC(=O)c1cc(F)cc(C#N)c1 | – | > 30000 | – |
| N#Cc1cc(F)cc(C(=O)Nc2ccccn2)c1 | 5.4 | 3010 | – |
| N#Cc1cc(F)cc(C(=O)Nc2ccc(F)c(Cl)c2)c1 | 43 | 377 | – |
| N#Cc1cc(F)cc(C(=O)Nc2ccccc2)c1 | 12.5 | 5440 | – |
| N#Cc1cc(F)cc(C(=O)Nc2cc(Cl)ccc2F)c1 | 29.8 | 3780 | – |
| N#Cc1cc(F)cc(C(=O)Nc2ccncc2)c1 | – | > 30000 | – |
| N#Cc1cc(F)cc(C(=O)Nc2nc(C3CC3)cs2)c1 | 1.5 | 900 | – |
| N#Cc1cc(F)cc(C(=O)Nc2ccc(Cl)cc2)c1 | – | > 30000 | – |
| N#Cc1cc(F)cc(C(=O)NC2C3CC4CC(C3)CC2C4)c1 (stereo unspecified) | 34.7 | > 10000 | – |
| COc1ccccc1NC(=O)c1cc(F)cc(C#N)c1 | – | > 30000 | – |
| N#Cc1cc(F)cc(C(=O)Nc2cccc(C(F)(F)F)c2)c1 | 0.9 | 543 | – |
| Cc1ccccc1NC(=O)c1cc(F)cc(C#N)c1 | – | > 30000 | – |
| N#Cc1cc(F)cc(C(=O)NC2CCCCC2)c1 | – | > 30000 | – |
| N#Cc1cc(F)cc(C(=O)Nc2ccon2)c1 | – | > 30000 | – |
| Cc1csc(NC(=O)c2cc(F)cc(C#N)c2)n1 | 1 | 59 | Ki [3]: 102 nM; PPB (Plasma [4]): 92.4%; Tmax (Plasma [14]): 15 min; inhibition [5]: inactive; inhibition [6]: inactive; remaining at 0.25 h, 1 µM [7]: 89.9%; Kp [15]: 4.1; remaining at 0.25 h, 1 µM [8]: 70.3%; PPB (Plasma [9]): 98.4%; inhibition [10]: inactive; Cmax [16]: 28800 ng/mL; inhibition [11]: inactive; AUC(0-t) at 4 h [17]: 17800 ng·h/mL; AUC(0-t) at 4 h [18]: 73000 ng·h/mL; Tmax (Brain): 15 min; inhibition [12]: inactive; inhibition [13]: inactive; Cmax (Plasma [19]): 7650 ng/mL |
| C#Cc1cccc(NC(=O)c2cc(F)cc(C#N)c2)c1 | 2.3 | 331 | – |
